{
  "source": "paper PMC10744608",
  "about": "“Simplified Synthesis of Renieramycin T Derivatives to Target Cancer Stem Cells via β-Catenin Proteasomal Degradation in Human Lung Cancer” (Marine Drugs, 2023)",
  "assay_type_in_all_cases": "cell-based, human",
  "key": {"H23 cells [1]": {"system": "H23 cells", "experiment": "Western blot of apoptosis-related proteins (cleaved PARP, Bcl-2, Bax)", "protocol": "The protein expression levels in NSCLC cells were assessed through Western blot analysis. A549, H23, and H292 cells were seeded at a density of 4 × 10^5 cells per well in 6-well cell culture plates. These cells were subjected to treatments with DH_32 at concentrations of 0, 25, 50, and 100 nM for 24 h at 37 °C.\nFollowing treatment, the cells were collected using cold PBS and incubated on ice with a lysis buffer. The lysis buffer contained 50 mM 4-(2-hydroxyethyl)-1-piperazineethanesulfonic acid (pH 7.5), 150 mM NaCl, 5 mM EDTA, 1% Triton X-100, 1 mM phenylmethylsufonyl fluoride, and 2 μg/mL pepstatin A (cat no: 9803, Cell Signaling), along with complete protease inhibitor cocktail tablets provided in EASYpack (Roche, cat no: 04693116001). The incubation occurred for 40 min on ice, followed by centrifugation at 12,000× g at 4 °C for 15 min. Cell lysates were collected, and the protein content was quantified using the bicinchoninic acid (BCA) protein kit from Thermo-Fisher Scientific, Rockford, IL, USA. The sample was denatured by heating at 95 °C for 5 min with a sample buffer. The protein was loaded onto a 10% sodium dodecyl sulfate polyacrylamide gel electrophoresis (SDS-PAGE). Following gel separation, the proteins were transferred onto a nitrocellulose membrane with a pore size of 0.45 μm. The membranes were incubated with 5% nonfat dry milk in TBST (25 mm Tris-HCl, pH 7.4, 125 mm NaCl, and 0.05% Tween 20) for 1 h 30 min. Following this, the membrane was exposed to primary antibodies (Cell Signaling) including rabbit PARP, BcL2, Bax, CD133, CD44, OCT4, ALDH1A1, and β-catenin, and incubated at 4 °C overnight. Rabbit β-actin served as the control for loading normalization. The primary antibodies were diluted to 1:1000 in 5% w/v BSA in TBST. The membranes were washed with TBST and were then exposed to horseradish-peroxidase (HRP)-conjugated isotype-specific secondary antibodies, as well as anti-rabbit and anti-mouse IgG (1:2000 in 5% w/v skim milk in TBST), for 1 h at RT. Membranes were washed again with TBST. A chemiluminescent substrate (Supersignal West Pico; Pierce, Rockford, IL, USA) was applied to detect complex reactivity, and the signal intensity was quantified through densitometry. Protein intensity was analyzed by using ImageJ software (Image J 1.52a, Rasband, W., National Institutes of Health, Bethesda, MD, USA). RT acted as the positive control for this experiment."}, "A549 cells [2]": {"system": "A549 cells", "experiment": "RT-qPCR of stemness transcription factors", "settings": "A549, 50 nM, 6 h, normalized to GAPDH", "protocol": "(§1) RNA extraction was performed on DH_32-treated cells (3 × 10^5 cells per well in 6-well plates) using GENEzol as the reagent. Total RNA was used to synthesize cDNA through the application of SuperScript III reverse transcriptase from Invitrogen. Following cDNA synthesis, 100 ng of the cDNA was utilized for RT-qPCR, employing Luna Universal qPCR Master Mix from NEB, UK, in a final volume of 20 µL. The reaction mixture was conducted using the CFX 96 real-time PCR system from Bio-Rad, located in Hercules, CA. For the RT-qPCR, the protocol included an initial denaturation step at 95 °C for 1 min, followed by 45 cycles involving denaturation at 95 °C for 10 s, annealing and extension at 60 °C for 30 s. Melting curve analysis was employed to assess the specificity of the primers. The targeted primer genes were: The gene expression levels were normalized using the GAPDH gene as an internal control. The relative mRNA gene expression level for each gene was determined based on the comparative Cq values. RT acted as the positive control for this experiment."}, "H23 cells [3]": {"system": "H23 cells", "experiment": "RT-qPCR of stemness transcription factors", "settings": "H23, 6 h", "protocol": "as §1"}, "H292 cells [4]": {"system": "H292 cells", "experiment": "RT-qPCR of stemness transcription factors", "settings": "H292, 6 h", "protocol": "as §1"}, "A549 cells [5]": {"system": "A549 cells", "experiment": "Immunoprecipitation of β-catenin–ubiquitin complex", "settings": "A549, 50 nM, compared to cells treated with RT", "protocol": "(§2) The DH_32-treated A549, H23, and H292 cells were collected using cold PBS and incubated on ice in a lysis buffer. This buffer consisted of 50 mM 4-(2-hydroxyethyl)-1-piperazineethanesulfonic acid at pH 7.5, 150 mM NaCl, 5 mM EDTA, 1% Triton X-100, 1 mM phenylmethylsulfonyl fluoride, and 2 μg/mL pepstatin A (catalog no: 9803, Cell Signaling), along with complete protease inhibitor cocktail tablets from the EASYpack (Roche, catalog no: 04693116001). The incubation took place for 40 min on ice, followed by centrifugation at 12,000× g at 4 °C for 15 min.\n(§3) Subsequently, immunoprecipitation was carried out using the Dynabeads™ Protein G Immunoprecipitation Kit from Thermo Fisher Scientific Inc. (Waltham, MA, USA). The magnetic beads were prepared and added to 100 μL of Ab binding and washing buffer that contained β-catenin (2 μL) for 15 min on rotation at room temperature. The complex of magnetic beads and antibodies was re-suspended in a protein lysis buffer and left to incubate at 4 °C overnight, facilitating the binding of the β-catenin antigen with the magnetic bead–antibody complex. The magnetic bead–Ab–Ag complex was washed three times using 200 μL of washing buffer. The magnetic bead–antibody–antigen complex was resuspended in the lysis buffer (30 μL), and the 6x sample buffer (5 μL) was denatured by heating at 95 °C for 5 min. The antigen–antibody complex was loaded onto a 12% sodium dodecyl sulfate polyacrylamide gel electrophoresis (SDS-PAGE). Following gel separation, the proteins were transferred onto a nitrocellulose membrane with a pore size of 0.45 μm. After transfer, the membrane was placed in a mixture containing 5% nonfat dry milk in TBST (composed of 25 mm Tris-HCl, pH 7.4, 125 mm NaCl, and 0.05% Tween 20) for a duration of 1 h 30 min. Following this, the proteins were exposed to primary antibodies (Cell Signaling), specifically ubiquitin mouse mAb (cat no: 14049), and left to incubate overnight at 4 °C. […] Protein intensity was analyzed by using ImageJ software (Image J 1.52a, Rasband, W., National Institutes of Health, USA). […]"}, "H23 cells [6]": {"system": "H23 cells", "experiment": "Immunoprecipitation of β-catenin–ubiquitin complex", "settings": "H23, 50 nM, compared to cells treated with RT", "protocol": "as §2, §3"}, "H292 cells [7]": {"system": "H292 cells", "experiment": "Immunoprecipitation of β-catenin–ubiquitin complex", "settings": "H292, 50 nM, compared to cells treated with RT", "protocol": "as §2, §3"}},
  "data": [
    {"smiles": "COC1=C(C)C(=O)C2=C(C1=O)[C@@H]1CN(Cc3ccc4ccccc4c3)[C@@H](C#N)[C@H](C2)N1C", "note": "[DH_32, (1R,4R,5S)-9-methoxy-8,11-dimethyl-3-(naphthalen-2-ylmethyl)-7,10-dioxo-1,2,3,4,5,6,7,10-octahydro-1,5-epiminobenzo[d]azocine-4-carbonitrile]", "values": [
      {"measurement": "anti-apoptotic Bcl-2 protein level", "setting": "H23 cells [1]; H23, 0–100 nM, 24 h", "result": "significant reduction in a dose-dependent manner"},
      {"measurement": "cleaved PARP level", "setting": "H23 cells [1]; H23, 50 nM, 24 h", "result": "substantial increase"},
      {"measurement": "pro-apoptotic protein Bax level", "setting": "H23 cells [1]; H23, 24 h", "result": "remained unaltered"},
      {"measurement": "mRNA expression level of NANOG", "setting": "A549 cells [2]", "result": 0.4, "unit": "fold"},
      {"measurement": "mRNA expression level of OCT4", "setting": "A549 cells [2]", "result": 0.5, "unit": "fold"},
      {"measurement": "mRNA expression level of SOX2", "setting": "A549 cells [2]", "result": 0.3, "unit": "fold"},
      {"measurement": "mRNA of OCT4, NANOG, and SOX2", "setting": "H23 cells [3]", "result": "significantly decreased"},
      {"measurement": "mRNA of OCT4, NANOG, and SOX2", "setting": "H292 cells [4]", "result": "significantly decreased"},
      {"measurement": "increase in level of β-catenin–ubiquitin complex", "setting": "A549 cells [5]", "result": 2.5, "unit": "fold"},
      {"measurement": "increase in level of β-catenin–ubiquitin complex", "setting": "H23 cells [6]", "result": "two-fold increase"},
      {"measurement": "increase in level of β-catenin–ubiquitin complex", "setting": "H292 cells [7]", "result": 3.5, "unit": "fold"}
    ]}
  ]
}
